Laboratory results reported in patent publication US6187802A, “Substituted 4-arylmethylene-2-imino-2,3-dihydrothiazoles and derivatives and their pharmaceutical use” (Knoll Aktiengesellschaft, priority 1997, dated 2001).
Counter-ions that a name gives are not always drawn. Like-named read-outs stand apart in the source and are kept apart here.

Assays:
Assay type in all cases: biochemical
[1] = target: T1, dopamine (DA) reuptake sites (Rattus norvegicus, UniProt P23977); assay: inhibition of [3H]dopamine uptake in vitro, striatal synaptosomes; details: [3H]dopamine 2.5 nM, means of three independent determinations
T1 construct: Striatal tissue from the brains of male Charles River rats weighing 150-250 g; from tissue; host or cells: rat brain striatum (crude synaptosomes in A1, washed membranes in A4)
Method: (§1) Striatal tissue from the brains of male Charles River rats weighing 150-250 g was homogenised in ice-cold 0.32M sucrose (1:10 w/v) using a motor driven teflon pestle (difference in diameter between mortar and pestle 0.5 mm). Nuclei and cell debris were removed by centrifugation at 1,500 g at 4° C. for 10 minutes. The pellet (P1) was discarded and the supernatant centrifuged at 28,000 g at 4° C. for 10 minutes. The crude synaptosomal pellet (P2) was resuspended in Krebs-Henseleit buffer (equivalent to 4.2 mg wet weight of tissue/ml).
Crude synaptosomes were incubated in a shaking water bath at 37° C. for 15 minutes. Aliquots (150 μl; equivalent to 0.625 mg wet weight of tissue/tube) were then added to tubes containing 275 μl of Krebs-Henseleit buffer and 50 μl of Krebs-Henseleit buffer (total uptake) or 50 μl of test compound (10 concentrations ranging from 10^-11 -10^-4 M or 50 μl of GBR 12909 (10^-5 M; non-specific uptake). Uptake was initiated by the addition of 25 μl of freshly prepared [^3 H]dopamine (2.5 nM), followed by vortexing and was continued for 5 minutes at 37° C. in the shaking water bath.
Uptake was terminated by filtration under vacuum through Skatron 11735 filters using a Skatron cell harvester. Filters were then washed with 8 ml ice-cold saline. The scored filter paper discs were punched into vials, scintillation fluid added and radioactivity determined by liquid scintillation counting.
(§2) For each of the dopamine (DA) uptake, 5-hydroxytryptamine (5-HT) uptake and noradrenaline (NA) uptake inhibition tests, the percentage inhibition of specific uptake of the tritiated ligand was calculated for each concentration of test compound. Inhibition curves were then produced. The concentration which gave 50% inhibition of specific uptake (IC50) was obtained from the curve. The inhibition constant (Ki) was then calculated using the formula [formula]
(§3) in which [ligand] is the concentration of tritiated ligand used and Km is the affinity of the uptake site for the ligand. […] Values are means of three independent determinations unless otherwise indicated.

[2] = target: T2, 5-hydroxytryptamine (5-HT) reuptake sites (Rattus norvegicus, UniProt P31652); assay: inhibition of [3H]5-HT uptake in vitro, frontal cortical synaptosomes
T2 construct: Frontal cortical tissue from the brains of male Sprague-Dawley rats; from tissue; host or cells: rat brain frontal cortex (crude synaptosomes in A2, washed membranes in A5)
Method: as §1, with “Frontal cortical tissue” for “Striatal tissue”, “male Sprague-Dawley” for “male Charles River”, “rats (Charles River; weight range” for “rats weighing”, “150-250 g)” for “150-250 g”, “to 8.3” for “to 4.2”
Crude synaptosomes were incubated in a shaking water bath at 37° C. for 15 minutes. Aliquots (150 μl; equivalent to 1.25 mg wet weight of tissue/tube) were then added to tubes containing 275 μl of Krebs-Henseleit buffer and 50 μl of Krebs-Henseleit buffer (total uptake) or 50 μl of test compound (at 10 concentrations ranging from 10^-11 -10^-4 M) or 50 μl of zimeldine (10^-5 M; non-specific uptake). Uptake was initiated by the addition of 25 μl of freshly prepared [^3 H]5-HT (2 nM), followed by vortexing, and was continued for 5 minutes at 37° C. in the shaking water bath. Uptake was terminated by filtration under vacuum through Skatron 11734 filters using a Skatron cell harvester. Filters were then washed with 8 ml ice-cold saline. The scored filter paper discs were punched into vials, scintillation fluid added and radioactivity determined by liquid scintillation counting.
as §2, §3

[3] = target: T3, noradrenaline (NA) reuptake sites (Rattus norvegicus, UniProt Q63380); assay: inhibition of [3H]noradrenaline uptake in vitro, frontal cortical synaptosomes; details: [3H]noradrenaline 10 nM, means of three independent determinations
T3 construct: Frontal cortical tissue from the brains of male Sprague-Dawley rats; from tissue; host or cells: rat brain frontal cortex (crude synaptosomes in A3, washed membranes in A6)
Method: as §1, with “Frontal cortical tissue” for “Striatal tissue”, “male Sprague-Dawley” for “male Charles River”, “rats (Charles River; weight range” for “rats weighing”, “150-250 g)” for “150-250 g”, “in Krebs-Physiological” for “in Krebs-Henseleit”, “to 16.7” for “to 4.2”
Crude synaptosomes were incubated in a shaking water bath at 37° C. for 15 minutes. Aliquots (150 μl; equivalent to 2.5 mg wet weight of tissue/tube) were then added to tubes containing 275 μl of Krebs-Physiological buffer and 50 μl of Krebs-Physiological buffer (total uptake) or 50 μl of test compound (at 10 concentrations ranging from […]) or 50 μl of desipramine (10^-5 M; non-specific uptake). Uptake was initiated by the addition of 25 μl of freshly prepared [^3 H]noradrenaline (10 nM), followed by vortexing and was continued for 5 minutes at 37° C. in the shaking water bath. Uptake was terminated by filtration under vacuum through Whatman GF/B filters using a Brandel cell harvester. Filters were then washed with 8 ml ice-cold saline. The scored filter paper discs were placed into vials, scintillation fluid added and radioactivity determined by liquid scintillation counting.
as §2, §3

T3 sequence (Q63380 1-617): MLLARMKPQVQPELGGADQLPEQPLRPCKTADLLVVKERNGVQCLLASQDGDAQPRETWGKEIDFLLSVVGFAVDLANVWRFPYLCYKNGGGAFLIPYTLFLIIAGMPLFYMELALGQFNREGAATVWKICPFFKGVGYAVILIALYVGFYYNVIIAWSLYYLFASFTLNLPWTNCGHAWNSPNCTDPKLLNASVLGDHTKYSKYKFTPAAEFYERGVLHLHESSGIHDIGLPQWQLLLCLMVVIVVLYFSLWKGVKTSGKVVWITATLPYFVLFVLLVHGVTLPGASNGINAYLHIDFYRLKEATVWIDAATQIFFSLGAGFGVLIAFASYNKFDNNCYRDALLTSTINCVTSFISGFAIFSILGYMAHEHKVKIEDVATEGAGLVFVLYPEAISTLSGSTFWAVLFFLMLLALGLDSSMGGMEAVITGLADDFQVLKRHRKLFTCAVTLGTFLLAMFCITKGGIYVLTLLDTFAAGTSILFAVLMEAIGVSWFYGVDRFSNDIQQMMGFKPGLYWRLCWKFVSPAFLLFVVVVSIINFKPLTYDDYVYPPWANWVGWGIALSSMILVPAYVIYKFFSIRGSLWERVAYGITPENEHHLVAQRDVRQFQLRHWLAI
T1 sequence (P23977 whole entry): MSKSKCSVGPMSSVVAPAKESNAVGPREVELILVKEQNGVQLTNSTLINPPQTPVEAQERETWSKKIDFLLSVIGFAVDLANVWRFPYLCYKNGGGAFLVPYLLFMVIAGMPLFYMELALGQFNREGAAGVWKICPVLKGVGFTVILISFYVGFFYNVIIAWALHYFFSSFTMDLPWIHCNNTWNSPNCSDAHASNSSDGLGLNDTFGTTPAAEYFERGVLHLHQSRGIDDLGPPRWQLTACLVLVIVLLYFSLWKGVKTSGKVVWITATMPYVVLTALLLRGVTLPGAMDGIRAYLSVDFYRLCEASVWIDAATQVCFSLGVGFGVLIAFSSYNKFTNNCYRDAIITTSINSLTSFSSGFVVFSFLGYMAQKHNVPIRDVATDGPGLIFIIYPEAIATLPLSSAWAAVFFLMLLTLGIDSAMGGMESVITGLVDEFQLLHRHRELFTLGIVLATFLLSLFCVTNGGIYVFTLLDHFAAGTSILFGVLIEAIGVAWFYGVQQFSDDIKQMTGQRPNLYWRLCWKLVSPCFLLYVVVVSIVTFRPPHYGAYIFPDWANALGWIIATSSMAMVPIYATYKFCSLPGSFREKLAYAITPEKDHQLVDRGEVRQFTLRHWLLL
T2 sequence (P31652 whole entry): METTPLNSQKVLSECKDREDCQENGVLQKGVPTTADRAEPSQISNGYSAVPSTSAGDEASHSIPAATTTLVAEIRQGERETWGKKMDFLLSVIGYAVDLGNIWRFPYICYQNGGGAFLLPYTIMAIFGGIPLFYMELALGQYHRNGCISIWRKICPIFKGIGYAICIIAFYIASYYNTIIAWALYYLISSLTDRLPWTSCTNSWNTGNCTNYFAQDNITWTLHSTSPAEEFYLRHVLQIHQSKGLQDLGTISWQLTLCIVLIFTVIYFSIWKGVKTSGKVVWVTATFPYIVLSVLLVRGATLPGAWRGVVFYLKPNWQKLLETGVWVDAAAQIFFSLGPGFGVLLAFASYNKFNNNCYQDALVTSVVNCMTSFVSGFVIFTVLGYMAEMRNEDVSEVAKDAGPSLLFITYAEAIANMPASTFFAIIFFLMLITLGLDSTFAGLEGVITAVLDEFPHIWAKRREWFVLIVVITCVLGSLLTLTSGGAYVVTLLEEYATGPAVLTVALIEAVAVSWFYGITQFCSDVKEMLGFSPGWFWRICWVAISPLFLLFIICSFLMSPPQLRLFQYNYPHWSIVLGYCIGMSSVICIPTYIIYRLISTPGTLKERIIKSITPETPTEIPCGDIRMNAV

## Clc1ccc(C2(C3=CSC4=NCCN34)CCC2)cc1Cl [Example 1, 3-[1-(3,4-dichlorophenyl)cyclobuty]-5,6-dihydroimidazo[2,1-b]thiazole hydrobromide]
[1]
  Ki: 0.0092 µM
[2]; rat frontal cortical synaptosomes, [3H]5-HT 2 nM, means of three independent determinations, read-out: 5-HT uptake (Ki)
  Ki: 0.12 µM
[3]
  Ki: 0.034 µM

## Clc1ccc(C2(C3=CSC4=NCCCN34)CCC2)cc1Cl [Example 4, 3-[1-(3,4-dichlorophenyl)cyclobutyl]-6,7-dihydro-5H-thiazolo[3,2-a]pyrimidine hydrobromide]
[1]
  Ki: 0.0095 µM
[2]
  Ki: 0.137 µM
[3]
  Ki: 0.015 µM

## C1=C(C2(c3ccc4ccccc4c3)CCC2)N2CCN=C2S1 [Example 5, 3-[1-(2-naphthyl)cyclobutyl]-5,6-dihydroimidazo[2,1-b]thiazole hydrobromide]
[1]
  Ki: 0.0059 µM
[2]
  Ki: 0.025 µM
[3]
  Ki: 0.0044 µM

## Clc1ccc(C2(C3=CSC4=NCCCN34)CCC2)cc1 [Example 2, 3-[1-(4-chlorophenyl)cyclobutyl]-6,7-dihydro-5H-thiazolo[3,2-a]pyrimidine hydrobromide]
[1]
  Ki: 0.104 µM
[2]
  Ki: 0.782 µM
[3]
  Ki: 0.261 µM

## Clc1ccc(C2(C3=CSC4=NCCN34)CCC2)cc1 [Example 3, 3-[1-(4-chlorophenyl)cyclobutyl]-5,6-dihydroimidazo-[2,1-b]thiazole hydrobromide]
[1]
  Ki: 0.079 µM
[2]
  Ki: 0.795 µM
[3]
  Ki: 0.022 µM
